In patent publication US20170290774A1, “NEUROKININ-1 RECEPTOR ANTAGONIST COMPOSITION FOR TREATMENT OF DISEASES AND CONDITIONS OF THE RESPIRATORY TRACT” (PLUS VITECH, S.L., priority 2014, published 2017):

Assay: Tissue concentration of aprepitant by HPLC after oral or inhaled administration to rabbits
Format: in vivo, New Zealand albino rabbits
Settings: rabbit
Experimental: Herein, New Zealand albino rabbits (New Zealand White Rabbits) with an initial average weight of approximately 3 kg were used. The rabbits were fed ad libitum and were monitored daily to check that signs of toxicity had not appeared. […] This mixture was administered as an aerosol to the airways of a group of 3 of said rabbits (Group 5) in a dose of 0.05 mg/kg body weight per day, to another group of three rabbits (Group 6) in a dose of 0.1 mg/kg body weight per day, to another group of three rabbits (group 7) in a dose of 0.2 mg/kg body weight per day and to another group of three rabbits (Group 8) in a dose of 0.4 mg/kg body weight per day. […] After seven days of treatment all animals were euthanized and necropsied. […] Samples were taken at the peripheral level of the lung parenchyma, just below the pleural surface. Tissue samples were also taken from the nasal cavity, pharynx, larynx and bronchi. […] The average is the arithmetic average calculated for each row or column of each table. The SD is the standard deviation, calculated for each row or column of each table.

`C[C@@H](OC1OCCN(Cc2nc(=O)[nH][nH]2)C1c1ccc(F)cc1)c1cc(C(F)(F)F)cc(C(F)(F)F)c1` (stereo in doubt) [Aprepitant, 5-([(2R,3S)-2-((R)-1-[3,5-bis(trifluoromethyl)phenyl]ethoxy)-3-(4-fluorophenyl)morpholino]methyl)-1H-1,2,4-triazol-3(2H)-one] showed a concentration at 7 days (New Zealand White (albino), lung, left superior lobe, inhaled, 0.1 mg/kg/day, Lung concentration of aprepitant LSPI, Average ± SD of cases, Group 6, inhalation (aerosol, olive oil) 0.1 mg/kg per day, seven days) of 2700 ng/g, a concentration at 7 days (New Zealand White (albino), lung, left superior lobe, inhaled, 0.2 mg/kg/day, Lung concentration of aprepitant LSPI (left superior lobe), Group 7, inhalation (aerosol, olive oil) 0.2 mg/kg per day, seven days, individual cases) of 6100 ng/g and a concentration at 7 days (New Zealand White (albino), lung, left superior lobe, po, 100 mg/kg/day, Lung concentration of aprepitant LSPI (left superior lobe), Group 4, oral 100 mg/kg per day, seven days, individual cases) of 4300 ng/g. The concentration at 7 days (New Zealand White (albino), lung, left superior lobe, po, 100 mg/kg/day, Lung concentration of aprepitant LSPI, Average ± SD of cases, Group 4, oral 100 mg/kg per day, seven days) was 4600 ng/g, the concentration at 7 days (New Zealand White (albino), lung, right inferior lobe, inhaled, 0.05 mg/kg/day, Lung concentration of aprepitant LIPD (right inferior lobe), Group 5, inhalation (aerosol, olive oil) 0.05 mg/kg per day, seven days, individual cases) was 1500 ng/g and the concentration at 7 days (New Zealand White (albino), lung, right inferior lobe, inhaled, 0.05 mg/kg/day, Lung concentration of aprepitant LIPD, Average ± SD of cases, Group 5, inhalation (aerosol, olive oil) 0.05 mg/kg per day, seven days) was 1500 ng/g. For the same compound, the concentration at 7 days (New Zealand White (albino), lung, right inferior lobe, inhaled, 0.1 mg/kg/day, Lung concentration of aprepitant LIPD (right inferior lobe), Group 6, inhalation (aerosol, olive oil) 0.1 mg/kg per day, seven days, individual cases) was 2800 ng/g, the concentration at 7 days (New Zealand White (albino), lung, right inferior lobe, inhaled, 0.1 mg/kg/day, Lung concentration of aprepitant LIPD, Average ± SD of cases, Group 6, inhalation (aerosol, olive oil) 0.1 mg/kg per day, seven days) was 2800 ng/g and the concentration at 7 days (New Zealand White (albino), lung, right inferior lobe, inhaled, 0.2 mg/kg/day, Lung concentration of aprepitant LIPD (right inferior lobe), Group 7, inhalation (aerosol, olive oil) 0.2 mg/kg per day, seven days, individual cases) was 6000 ng/g. For the same compound, the concentration at 7 days (New Zealand White (albino), lung, right inferior lobe, inhaled, 0.2 mg/kg/day, Lung concentration of aprepitant LIPD, Average ± SD of cases, Group 7, inhalation (aerosol, olive oil) 0.2 mg/kg per day, seven days) was 6000 ng/g, the concentration at 7 days (New Zealand White (albino), lung, right inferior lobe, po, 100 mg/kg/day, Lung concentration of aprepitant LIPD (right inferior lobe), Group 4, oral 100 mg/kg per day, seven days, individual cases) was 4900 ng/g and the concentration at 7 days (New Zealand White (albino), lung, right inferior lobe, po, 100 mg/kg/day, Lung concentration of aprepitant LIPD, Average ± SD of cases, Group 4, oral 100 mg/kg per day, seven days) was 5600 ng/g. The concentration at 7 days (New Zealand White (albino), lung, right middle lobe, inhaled, 0.05 mg/kg/day, Lung concentration of aprepitant LMPD (right middle lobe), Group 5, inhalation (aerosol, olive oil) 0.05 mg/kg per day, seven days, individual cases) was 1500 ng/g, the concentration at 7 days (New Zealand White (albino), lung, right middle lobe, inhaled, 0.05 mg/kg/day, Lung concentration of aprepitant LMPD, Average ± SD of cases, Group 5, inhalation (aerosol, olive oil) 0.05 mg/kg per day, seven days) was 1500 ng/g and the concentration at 7 days (New Zealand White (albino), lung, right middle lobe, inhaled, 0.1 mg/kg/day, Lung concentration of aprepitant LMPD (right middle lobe), Group 6, inhalation (aerosol, olive oil) 0.1 mg/kg per day, seven days, individual cases) was 2900 ng/g. The concentration at 7 days (New Zealand White (albino), lung, right middle lobe, inhaled, 0.1 mg/kg/day, Lung concentration of aprepitant LMPD, Average ± SD of cases, Group 6, inhalation (aerosol, olive oil) 0.1 mg/kg per day, seven days) was 2900 ng/g, the concentration at 7 days (New Zealand White (albino), lung, right middle lobe, inhaled, 0.2 mg/kg/day, Lung concentration of aprepitant LMPD (right middle lobe), Group 7, inhalation (aerosol, olive oil) 0.2 mg/kg per day, seven days, individual cases) was 6000 ng/g and the concentration at 7 days (New Zealand White (albino), lung, right middle lobe, inhaled, 0.2 mg/kg/day, Lung concentration of aprepitant LMPD, Average ± SD of cases, Group 7, inhalation (aerosol, olive oil) 0.2 mg/kg per day, seven days) was 6030 ng/g. It also gave a concentration at 7 days (New Zealand White (albino), lung, right middle lobe, po, 100 mg/kg/day, Lung concentration of aprepitant LMPD, Average ± SD of cases, Group 4, oral 100 mg/kg per day, seven days) of 5400 ng/g, a concentration at 7 days (New Zealand White (albino), lung, right superior lobe, inhaled, 0.05 mg/kg/day, Lung concentration of aprepitant LSPD (right superior lobe), Group 5, inhalation (aerosol, olive oil) 0.05 mg/kg per day, seven days, individual cases) of 1400 ng/g and a concentration at 7 days (New Zealand White (albino), lung, right superior lobe, inhaled, 0.05 mg/kg/day, Lung concentration of aprepitant LSPD, Average ± SD of cases, Group 5, inhalation (aerosol, olive oil) 0.05 mg/kg per day, seven days) of 1400 ng/g. The concentration at 7 days (New Zealand White (albino), lung, right superior lobe, inhaled, 0.1 mg/kg/day, Lung concentration of aprepitant LSPD (right superior lobe), Group 6, inhalation (aerosol, olive oil) 0.1 mg/kg per day, seven days, individual cases) was 2900 ng/g, the concentration at 7 days (New Zealand White (albino), lung, right superior lobe, inhaled, 0.1 mg/kg/day, Lung concentration of aprepitant LSPD, Average ± SD of cases, Group 6, inhalation (aerosol, olive oil) 0.1 mg/kg per day, seven days) was 2800 ng/g and the concentration at 7 days (New Zealand White (albino), lung, right superior lobe, inhaled, 0.2 mg/kg/day, Lung concentration of aprepitant LSPD (right superior lobe), Group 7, inhalation (aerosol, olive oil) 0.2 mg/kg per day, seven days, individual cases) was 6100 ng/g. For the same compound, the concentration at 7 days (New Zealand White (albino), lung, right superior lobe, inhaled, 0.2 mg/kg/day, Lung concentration of aprepitant LSPD, Average ± SD of cases, Group 7, inhalation (aerosol, olive oil) 0.2 mg/kg per day, seven days) was 6000 ng/g, the concentration at 7 days (New Zealand White (albino), lung, right superior lobe, po, 100 mg/kg/day, Lung concentration of aprepitant LSPD, Average ± SD of cases, Group 4, oral 100 mg/kg per day, seven days) was 4700 ng/g and the concentration at 7 days (New Zealand White, in vivo, 0.4 mg/kg/day, Lung concentration of aprepitant, Average ± SD of the five lobes per case) was 9900 ng/g. For the same compound, the concentration at 7 days (New Zealand White, in vivo, po, 10 mg/kg/day, Lung concentration of aprepitant, Average ± SD of the five lobes per case) was 960 ng/g, the concentration at 7 days (New Zealand White, in vivo, po, 40 mg/kg/day, Lung concentration of aprepitant, Average ± SD of the five lobes per case) was 4200 ng/g and the concentration at 7 days (New Zealand White, in vivo, po, 80 mg/kg/day, Lung concentration of aprepitant, Average ± SD of the five lobes per case) was 4400 ng/g. For the same compound, the concentration at 7 days (New Zealand White, lung, left inferior lobe, inhaled, 0.2 mg/kg/day, Lung concentration of aprepitant LIPI, Average ± SD of cases, Group 7, inhalation (aerosol, olive oil) 0.2 mg/kg per day, seven days) was 5900 ng/g, the concentration at 7 days (New Zealand White, lung, left inferior lobe, inhaled, 0.4 mg/kg/day, Lung concentration of aprepitant LIPI (left inferior lobe), Group 8, inhalation (aerosol, olive oil) 0.4 mg/kg per day, seven days, individual cases) was 10000 ng/g and the concentration at 7 days (New Zealand White, lung, left inferior lobe, inhaled, 0.4 mg/kg/day, Lung concentration of aprepitant LIPI, Average ± SD of cases, Group 8, inhalation (aerosol, olive oil) 0.4 mg/kg per day, seven days) was 10000 ng/g. The concentration at 7 days (New Zealand White, lung, left inferior lobe, po, 10 mg/kg/day, Lung concentration of aprepitant LIPI (left inferior lobe), Group 1, oral 10 mg/kg per day, seven days, individual cases) was 1500 ng/g, the concentration at 7 days (New Zealand White, lung, left inferior lobe, po, 10 mg/kg/day, Lung concentration of aprepitant LIPI, Average ± SD of cases, Group 1, oral 10 mg/kg per day, seven days) was 1300 ng/g and the concentration at 7 days (New Zealand White, lung, left inferior lobe, po, 40 mg/kg/day, Lung concentration of aprepitant LIPI (left inferior lobe), Group 2, oral 40 mg/kg per day, seven days, individual cases) was 5400 ng/g. The concentration at 7 days (New Zealand White, lung, left inferior lobe, po, 40 mg/kg/day, Lung concentration of aprepitant LIPI, Average ± SD of cases, Group 2, oral 40 mg/kg per day, seven days) was 4000 ng/g.
